In PubChem BioAssay (NCI):
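Grown in 96-well plates, cells were treated for 48 hours with each compound at five concentrations. Insufficient inhibition: endpoint recorded as highest concentration tested. TGI is the concentration that stops growth completely.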

Legend:
Experiment in all cases: NCI anticancer screen, dose series, 48 h
[1] = tested on: MALME-3M melanoma
[2] = tested on: COLO 205 colon
[3] = tested on: UACC-62 melanoma
[4] = tested on: M14 melanoma
[5] = tested on: MCF7 breast
[6] = tested on: MOLT-4 leukemia
[7] = tested on: HOP-92 NSCLC
[8] = tested on: NCI/ADR-RES ovarian
[9] = tested on: SF-539 CNS
[10] = tested on: SW-620 colon

`Cc1cccc(C2ON=C(c3ccccc3)N2C23CC4CC(CC(C4)C2)C3)c1` (centres undefined) gave a TGI [1] of over 10 µM, a TGI [2] of over 10 µM and a TGI [3] of over 10 µM. The TGI [4] was over 10 µM, the TGI [5] was over 10 µM and the TGI [6] was over 10 µM. It also gave a TGI [7] of over 10 µM, a TGI [8] of over 10 µM and a TGI [9] of over 10 µM. For the same molecule, the TGI [10] was over 10 µM.
`C#CC[C@@H]1C(=O)N(Cc2ccc(OC)cc2)[C@@H](C(C)C)C(=O)N1Cc1ccc(OC)cc1` gave a TGI [1] of over 100 µM, a TGI [2] of 37 µM and a TGI [3] of over 100 µM. It also gave a TGI [4] of over 100 µM, a TGI [5] of 54.9 µM and a TGI [6] of 34.7 µM. The TGI [7] was over 100 µM, the TGI [8] was over 100 µM and the TGI [9] was over 100 µM. It also gave a TGI [10] of over 100 µM.
With `CC(=O)CCCCn1c(=O)c2c(nc(Br)n2C)n(C)c1=O` the TGI [1] was over 100 µM, the TGI [2] was over 100 µM and the TGI [3] was over 100 µM. It also gave a TGI [4] of over 100 µM, a TGI [5] of over 100 µM and a TGI [6] of over 100 µM. It also gave a TGI [7] of 31.7 µM, a TGI [8] of over 100 µM and a TGI [9] of over 100 µM. The TGI [10] was over 100 µM.
`CNC(=O)c1n[nH]n(C2CCCCC2)c1=S` gave a TGI [1] of over 100 µM, a TGI [2] of over 100 µM and a TGI [3] of over 100 µM. For the same molecule, the TGI [4] was over 100 µM, the TGI [5] was over 100 µM and the TGI [6] was over 100 µM. It also gave a TGI [7] of over 100 µM, a TGI [8] of over 100 µM and a TGI [9] of over 100 µM. The TGI [10] was over 100 µM.
For `COc1ccc(C2=Nc3c(nc(OC)[nH]c3=O)NC(c3ccccc3)C2)cc1` (centres undefined), the TGI [1] was over 100 µM, the TGI [2] was 50.3 µM and the TGI [3] was over 100 µM. The TGI [4] was over 100 µM, the TGI [5] was 68.2 µM and the TGI [6] was over 100 µM. It also gave a TGI [7] of over 100 µM, a TGI [8] of over 100 µM and a TGI [9] of 94.1 µM. The TGI [10] was 72.4 µM.
Molecule `FC(F)(F)c1ccc(C2ON=C(c3ccccc3)N2C23CC4CC(CC(C4)C2)C3)cc1` (centres undefined) has a TGI [1] of over 10 µM, a TGI [2] of over 10 µM and a TGI [3] of over 10 µM. The TGI [4] was over 10 µM, the TGI [5] was over 10 µM and the TGI [6] was over 10 µM. The TGI [7] was over 10 µM, the TGI [8] was over 10 µM and the TGI [9] was over 10 µM. The TGI [10] was over 10 µM.
For `COc1ccc(/C=c2\c(=O)[nH]c3nc4ccccc4c(=O)n23)cc1`, the TGI [1] was over 100 µM, the TGI [2] was over 100 µM and the TGI [3] was over 100 µM. It also gave a TGI [4] of over 100 µM, a TGI [5] of over 100 µM and a TGI [6] of over 100 µM. For the same molecule, the TGI [7] was over 100 µM, the TGI [8] was over 100 µM and the TGI [9] was over 100 µM. For the same molecule, the TGI [10] was over 100 µM.
Molecule `CC1=NN=C(C)C1N=Nc1ccc2nc(C)[nH]c2c1` has a TGI [1] of over 50.5 µM, a TGI [2] of over 100 µM and a TGI [3] of over 79.8 µM. It also gave a TGI [4] of over 100 µM, a TGI [5] of over 100 µM and a TGI [6] of over 85.9 µM. It also gave a TGI [7] of 65.4 µM, a TGI [8] of over 100 µM and a TGI [9] of over 88.6 µM. It also gave a TGI [10] of over 100 µM.
Molecule `O=C1Oc2ccccc2C1C/C(=N\Nc1ccccc1)c1ccccc1O` (centres undefined) has a TGI [1] of over 100 µM, a TGI [2] of 32.8 µM and a TGI [3] of over 100 µM. For the same molecule, the TGI [4] was over 100 µM, the TGI [5] was over 100 µM and the TGI [6] was 78.7 µM. For the same molecule, the TGI [7] was 78.8 µM, the TGI [8] was 70.9 µM and the TGI [9] was over 100 µM. The TGI [10] was over 100 µM.
Molecule `NS(=O)(=O)c1ccc(NC(=O)N/N=C/c2ccccc2O)cc1` has a TGI [1] of over 100 µM, a TGI [2] of over 100 µM and a TGI [3] of over 100 µM. It also gave a TGI [4] of over 100 µM, a TGI [5] of over 100 µM and a TGI [6] of over 100 µM. The TGI [7] was over 100 µM, the TGI [8] was over 100 µM and the TGI [9] was over 100 µM. The TGI [10] was over 100 µM.
Molecule `O=C1CN(c2ccccc2)Cc2nc(Cl)ccc2N1` has a TGI [1] of over 100 µM, a TGI [2] of over 100 µM and a TGI [3] of over 100 µM. It also gave a TGI [4] of over 100 µM, a TGI [5] of over 100 µM and a TGI [6] of over 100 µM. For the same molecule, the TGI [7] was over 100 µM, the TGI [8] was over 100 µM and the TGI [9] was over 100 µM. The TGI [10] was over 100 µM.
`O=C1N=C2SC=C(NC(=S)Nc3ccccc3)N2NC12c1ccccc1-c1ccccc12` was tested, and the TGI [1] was over 10 µM, the TGI [2] was over 10 µM and the TGI [3] was over 10 µM. The TGI [4] was over 10 µM, the TGI [5] was over 10 µM and the TGI [6] was over 10 µM. It also gave a TGI [7] of over 10 µM, a TGI [8] of over 10 µM and a TGI [9] of over 10 µM. The TGI [10] was over 10 µM.
Work on `CC(C)C1CNC(=O)C2(C=NC(C(C)C)CNC(=O)C3(C=N1)CCCO3)CCCO2` (centres undefined) yielded a TGI [1] of over 10 µM, a TGI [2] of over 10 µM and a TGI [3] of over 10 µM. It also gave a TGI [4] of over 10 µM, a TGI [5] of over 10 µM and a TGI [6] of over 10 µM. For the same molecule, the TGI [7] was over 10 µM, the TGI [8] was over 10 µM and the TGI [9] was over 10 µM. It also gave a TGI [10] of over 10 µM.
`C=CCCC1(O)C(O)C(CO)O[C@H](O[C@@]2(CO)OC(CO)C(O)C2O)C1O` (some centres undefined) was tested, and the TGI [1] was over 100 µM, the TGI [2] was over 100 µM and the TGI [4] was over 100 µM. For the same molecule, the TGI [5] was over 100 µM, the TGI [6] was over 100 µM and the TGI [7] was over 100 µM. The TGI [8] was over 100 µM, the TGI [9] was over 100 µM and the TGI [10] was over 100 µM.
`CCCCOCCOCCOC1=CC(=O)c2c(O)ccc(O)c2C1=O` gave a TGI [1] of 1.49 µM, a TGI [2] of 2.74 µM and a TGI [3] of 3.64 µM. The TGI [4] was 2.85 µM, the TGI [5] was 4.01 µM and the TGI [6] was 8.22 µM. The TGI [7] was 6.28 µM, the TGI [8] was 5.14 µM and the TGI [9] was 3.46 µM. It also gave a TGI [10] of 3.06 µM.
